Molecular target: T1, Human DNA polymerase gamma (Homo sapiens, UniProt P54098)
T1 construct: purchased Abcam
T1 sequence (P54098 1-1239): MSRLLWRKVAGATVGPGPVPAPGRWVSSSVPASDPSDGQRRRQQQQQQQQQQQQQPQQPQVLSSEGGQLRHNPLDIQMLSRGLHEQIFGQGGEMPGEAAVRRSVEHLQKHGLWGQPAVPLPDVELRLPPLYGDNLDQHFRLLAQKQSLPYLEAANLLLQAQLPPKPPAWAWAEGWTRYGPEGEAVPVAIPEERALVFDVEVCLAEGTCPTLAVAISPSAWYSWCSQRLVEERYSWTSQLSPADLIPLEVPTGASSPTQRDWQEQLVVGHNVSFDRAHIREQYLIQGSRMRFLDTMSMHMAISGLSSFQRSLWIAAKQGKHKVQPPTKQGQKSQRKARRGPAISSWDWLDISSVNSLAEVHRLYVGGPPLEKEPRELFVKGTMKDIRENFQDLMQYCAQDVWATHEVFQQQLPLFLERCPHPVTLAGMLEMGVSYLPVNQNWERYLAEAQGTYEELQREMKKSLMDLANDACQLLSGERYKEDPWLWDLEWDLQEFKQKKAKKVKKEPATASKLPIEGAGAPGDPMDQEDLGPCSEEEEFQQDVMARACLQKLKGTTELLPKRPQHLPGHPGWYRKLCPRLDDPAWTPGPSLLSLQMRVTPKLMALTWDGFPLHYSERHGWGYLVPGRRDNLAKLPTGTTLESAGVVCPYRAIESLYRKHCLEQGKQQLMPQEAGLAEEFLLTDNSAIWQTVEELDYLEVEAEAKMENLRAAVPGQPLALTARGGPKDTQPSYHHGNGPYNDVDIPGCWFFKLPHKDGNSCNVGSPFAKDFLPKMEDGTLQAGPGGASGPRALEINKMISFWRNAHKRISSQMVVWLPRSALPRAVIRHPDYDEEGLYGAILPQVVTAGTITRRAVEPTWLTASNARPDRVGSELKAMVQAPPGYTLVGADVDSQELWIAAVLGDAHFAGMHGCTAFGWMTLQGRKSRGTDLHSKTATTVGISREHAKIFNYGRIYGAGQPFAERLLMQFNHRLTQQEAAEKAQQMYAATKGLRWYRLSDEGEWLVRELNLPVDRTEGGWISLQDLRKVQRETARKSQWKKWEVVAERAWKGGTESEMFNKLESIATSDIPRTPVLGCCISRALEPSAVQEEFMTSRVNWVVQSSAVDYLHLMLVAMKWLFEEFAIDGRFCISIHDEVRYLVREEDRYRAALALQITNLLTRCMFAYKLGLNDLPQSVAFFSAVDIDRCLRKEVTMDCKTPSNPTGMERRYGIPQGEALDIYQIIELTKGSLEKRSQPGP
Experiment: DNA-dependent DNA polymerase activity
Type: biochemical
Conditions: DNA Pol γ
Experimental: to the method described previously 1. A 25 nM solution of RSV MTase-CTD protein or RSV L+P complex was incubated with 0.7 µM or 1.8 µM purified synthetic RNA 5’-Gppp […]
[…] (RSV9) for the MTase-CTD or L+P complex, respectively; 2 µM or 0.17 µM S-adenosyl methionine (SAM) for the MTase-CTD or L–P complex, respectively; and 0.1 µM or 0.8 µM 3H-SAM (Perkin Elmer) for the MTase-CTD or L–P complex, respectively; in 50 mM Tris-HCl pH 8.0. Compounds, previously dissolved in DMSO were added at a final concentration of 50 µM or 200 µM. After 3 h incubation at 30°C, reactions were quenched by a 20-fold dilution in ice cold water. Samples were transferred to DEAE filtermats (Perkin Elmer) using a Filtermat Harvester (Packard Instruments). The RNA-retaining mats were washed twice with 10 mM ammonium formate pH 8.0, twice with water and once with ethanol. They were then soaked with scintillation fluid (Perkin Elmer), and 3H-methyl transfer to the RNA substrates was determined using a Wallac MicroBeta TriLux Liquid Scintillation Counter.
Cellular polymerase assays
DNA-dependant DNA polymerase (DdDp) activity
Human DNA polymerases alpha (CHIMERx) at 5 U/ml, beta (CHIMERx) at 0.5 U/ml and gamma (Abcam) at 0.1 mg/ml were incubated with the tested inhibitors at specified concentrations, and a reaction mix composed of 62 µg/ml activated calf thymus DNA, dGTP (2 µM), dATP (2 µM), dCTP (2 µM), [ 3H]dTTP (0.05 µCi/µl), 0.1 mg/ml BSA and a buffer composed of Tris-HCl pH 8 (50 mM), MgCl 2 (5 mM), KCl (60 mM), and DTT (4 mM.) in a total volume of 50 µl. After 2 hours incubation at 30°C, reaction was terminated by addition of 60 µl of a chilled stop solution composed of 20% (w/v) TCA with 0.5 mM ATP. […] Radioactivity was measured via liquid scintillation counting (MicroScint-20, 40µl) on a TriLux apparatus. […]
The RNA transcription activity of human mitochondrial RNA polymerase (POLRMT) was measured by the incorporation of radioactively labeled nucleotides by POLRMT into acid-insoluble RNA products as described previously 2. […]

## COc1cc(C(=O)NC[C@](O)(c2cc(C(C)(C)O)c(F)c(-c3ccc(F)cc3)n2)C(F)(F)F)cc2cc(C)nnc12 [JNJ-8003]
  IC50: > 100 µM

Reference: paper PMC10590419, “Structural and mechanistic insights into the inhibition of respiratory syncytial virus polymerase by a non-nucleoside inhibitor” (Communications Biology, 2023)
